Test results: patent US20240018110A1, “RADIOLABELED COMPOUNDS TARGETING THE PROSTATE-SPECIFIC MEMBRANE ANTIGEN” (THE UNIVERSITY OF BRITISH COLUMBIA, priority 2020, published 2024)

Experiments:
PSMA = PSMA (Homo sapiens, UniProt Q04609); assay: In vitro competitive binding assay
LNCaP xenograft = assay: Biodistribution of 68Ga-labeled compounds in mice bearing LNCaP xenograft; format: in vivo; details: 1 h p.i.
Method: All chemicals and solvents were obtained from commercial sources, and used without further purification. PSMA-targeted peptides were synthesized using a solid phase approach on an AAPPTec (Louisville, KY) Endeavor 90 peptide synthesizer. Purification of peptides was performed on an Agilent 1260 Infinity II Preparative System equipped with a model 1260 Infinity II preparative binary pump, a model 1260 Infinity variable wavelength detector (set at 220 nm), and a 1290 Infinity II preparative open-bed fraction collector. The HPLC column used was a preparative column (Gemini, NX—C18, 5 μ, 50×30 mm) purchased from Phenomenex. The collected HPLC eluates containing the desired peptide were lyophilized using a Labconco (Kansas City, MO) FreeZone 4.5 Plus freeze-drier. Mass analyses were performed using a Waters LC-MS system with an ESI ion source. C18 Sep-Pak cartridges (1 cm^3, 50 mg) were obtained from Waters (Milford, MA). ^68Ga was eluted from an iThemba Labs (Somerset West, South Africa) generator. Radioactivity of ^68Ga-labeled peptides was measured using a Capintec (Ramsey, NJ) CRC®-25R/W dose calibrator, and the radioactivity of mouse tissues collected from biodistribution studies were counted using a Perkin Elmer (Waltham, MA) Wizard2 2480 automatic gamma counter.

Chain of PSMA (Q04609 whole entry): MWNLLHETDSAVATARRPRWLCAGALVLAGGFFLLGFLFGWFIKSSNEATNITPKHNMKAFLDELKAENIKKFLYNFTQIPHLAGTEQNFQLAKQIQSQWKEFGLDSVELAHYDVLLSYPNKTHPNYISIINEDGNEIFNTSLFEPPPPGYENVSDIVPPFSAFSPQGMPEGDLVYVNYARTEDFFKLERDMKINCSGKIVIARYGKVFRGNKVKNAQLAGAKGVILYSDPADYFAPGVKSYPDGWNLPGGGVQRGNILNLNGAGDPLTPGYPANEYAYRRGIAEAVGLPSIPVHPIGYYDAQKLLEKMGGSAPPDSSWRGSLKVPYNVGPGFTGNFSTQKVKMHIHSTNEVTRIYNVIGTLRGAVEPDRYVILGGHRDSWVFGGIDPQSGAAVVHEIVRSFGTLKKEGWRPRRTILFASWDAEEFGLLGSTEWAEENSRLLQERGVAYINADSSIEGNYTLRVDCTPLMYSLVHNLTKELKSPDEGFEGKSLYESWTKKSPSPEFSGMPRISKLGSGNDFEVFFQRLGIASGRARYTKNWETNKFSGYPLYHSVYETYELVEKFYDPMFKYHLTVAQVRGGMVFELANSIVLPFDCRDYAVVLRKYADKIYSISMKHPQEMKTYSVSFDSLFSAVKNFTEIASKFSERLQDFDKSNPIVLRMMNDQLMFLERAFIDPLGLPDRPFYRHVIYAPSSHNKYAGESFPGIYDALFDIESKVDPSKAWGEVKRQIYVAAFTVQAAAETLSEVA

O=C(O)CCC[C@H](NC(=O)N[C@@H](CCCONC(=O)[C@H](Cc1c2ccccc2cc2ccccc12)NC(=O)C1CCC(CNC(=O)CN2CCN(CC(=O)O)CCN(CC(=O)O)CCN(CC(=O)O)CC2)CC1)C(=O)O)C(=O)O (stereo partly shown) [CCZ02018]
Ki (PSMA): 1.61 ± 0.04 nM

O=C(O)CCC[C@@H](OC(=O)N[C@@H](CCCCNC(=O)[C@H](Cc1c2ccccc2cc2ccccc12)NC(=O)[C@H]1CC[C@H](CNC(=O)CCc2ccc(O)c(CN(CCN(CC(=O)O)Cc3cc(CCC(=O)O)ccc3O)CC(=O)O)c2)CC1)C(=O)O)C(=O)O [AR-2-113-2, HBED-CC-PSMA-Aad-carbamate]
Ki (PSMA): 56.3 nM

O=C(O)CCC[C@H](OC(=O)N[C@@H](CCCCNC(=O)[C@H](Cc1c2ccccc2cc2ccccc12)NC(=O)[C@H]1CC[C@H](CNC(=O)CN2CCN(CC(=O)O)CCN(CC(=O)O)CCN(CC(=O)O)CC2)CC1)C(=O)O)C(=O)O [AR-2-050-1, DOTA-PSMA-Aad-carbamate]
Ki (PSMA): 8.99 nM

O=C(O)CCC[C@H](OC(=O)N[C@@H](CCCCNC(=O)[C@H](Cc1c2ccccc2cc2ccccc12)NC(=O)[C@H]1CC[C@H](CNC(=O)CCc2ccc(O)c(CN(CCN(CC(=O)O)Cc3cc(CCC(=O)O)ccc3O)CC(=O)O)c2)CC1)C(=O)O)C(=O)O [AR-2-113-1, HBED-CC-PSMA-Aad-carbamate]
Ki (PSMA): 3.44 nM

O=C(O)CCC[C@H](NC(=O)N[C@@H](CCCCCNC(=O)[C@H](Cc1c2ccccc2cc2ccccc12)NC(=O)C1CCC(CNC(=O)CN2CCN(CC(=O)O)CCN(CC(=O)O)CCN(CC(=O)O)CC2)CC1)C(=O)O)C(=O)O (stereo partly shown) [CCZ02010]
Ki (PSMA): 17 nM

O=C(O)CCC[C@@H](OC(=O)N[C@@H](CCCCNC(=O)[C@H](Cc1c2ccccc2cc2ccccc12)NC(=O)[C@H]1CC[C@H](CNC(=O)CN2CCN(CC(=O)O)CCN(CC(=O)O)CCN(CC(=O)O)CC2)CC1)C(=O)O)C(=O)O [AR-2-050-2, DOTA-PSMA-Aad-carbamate]
Ki (PSMA): 240 nM

O=C(O)CCC[C@H](NC(=O)N[C@@H](COCCNC(=O)[C@H](Cc1c2ccccc2cc2ccccc12)NC(=O)C1CCC(CNC(=O)CN2CCN(CC(=O)O)CCN(CC(=O)O)CCN(CC(=O)O)CC2)CC1)C(=O)O)C(=O)O (stereo partly shown) [CCZ02011]
Ki (PSMA): 1.23 nM

O=C(O)CC[C@H](NC(=O)N[C@@H](C[C@@H]1C[C@H]1CNC(=O)[C@H](Cc1c2ccccc2cc2ccccc12)NC(=O)[C@H]1CC[C@H](CNC(=O)CN2CCN(CC(=O)O)CCN(CC(=O)O)CCN(CC(=O)O)CC2)CC1)C(=O)O)C(=O)O [ADZ-4-101]
Ki (PSMA): 2.42 nM

O=C(O)CCC[C@H](NC(=O)N[C@@H](CSC[C@H](NC(=O)[C@H](Cc1c2ccccc2cc2ccccc12)NC(=O)C1CCC(CNC(=O)CN2CCN(CC(=O)O)CCN(CC(=O)O)CCN(CC(=O)O)CC2)CC1)C(=O)O)C(=O)O)C(=O)O (stereo partly shown) [CCZ02032]
Ki (PSMA): 3.2 nM

O=C(O)CCC[C@H](NC(=O)N[C@@H](CSC[C@@H](NC(=O)[C@H](Cc1c2ccccc2cc2ccccc12)NC(=O)C1CCC(CNC(=O)CN2CCN(CC(=O)O)CCN(CC(=O)O)CCN(CC(=O)O)CC2)CC1)C(=O)O)C(=O)O)C(=O)O (stereo partly shown) [CCZ02033]
Ki (PSMA): 461 nM

O=C(O)CSCC(NC(=O)NC(CNC(=O)CNC(=O)C(Cc1c2ccccc2cc2ccccc12)NC(=O)C1CCC(CNC(=O)CN2CCN(CC(=O)O)CCN(CC(=O)O)CCN(CC(=O)O)CC2)CC1)C(=O)O)C(=O)O.[68Ga] (stereo not shown) [68Ga-CCZ01194]
Biodistribution, Adrenal (Avg) (LNCaP xenograft; Adrenal): 0.65 % ID/g | Biodistribution, Blood (Avg) (LNCaP xenograft; Blood): 0.98 % ID/g | Biodistribution, Bone (Avg) (LNCaP xenograft; Bone): 0.14 % ID/g | Biodistribution, Brain (Avg) (LNCaP xenograft; Brain): 0.03 % ID/g | Biodistribution, Fat (Avg) (LNCaP xenograft; Fat): 0.27 % ID/g | Biodistribution, Heart (Avg) (LNCaP xenograft; Heart): 0.27 % ID/g | Biodistribution, Intestine (Avg) (LNCaP xenograft; Intestine): 0.79 % ID/g | Biodistribution, Kidney (Avg) (LNCaP xenograft; Kidney): 7.33 % ID/g | Biodistribution, LNCaP tumor (Avg) (LNCaP xenograft; LNCaP tumor): 9.12 % ID/g | Biodistribution, Liver (Avg) (LNCaP xenograft; Liver): 0.35 % ID/g | Biodistribution, Lungs (Avg) (LNCaP xenograft; Lungs): 0.70 % ID/g | Biodistribution, Muscle (Avg) (LNCaP xenograft; Muscle): 0.14 % ID/g | Biodistribution, Pancreas (Avg) (LNCaP xenograft; Pancreas): 0.15 % ID/g | Biodistribution, Salivary gland (Avg) (LNCaP xenograft; Salivary gland): 0.34 % ID/g | Biodistribution, Seminal (Avg) (LNCaP xenograft; Seminal): 0.13 % ID/g | Biodistribution, Spleen (Avg) (LNCaP xenograft; Spleen): 0.24 % ID/g | Biodistribution, Stomach (Avg) (LNCaP xenograft; Stomach): 0.09 % ID/g | Biodistribution, Testes (Avg) (LNCaP xenograft; Testes): 0.23 % ID/g | Biodistribution, Thyroid (Avg) (LNCaP xenograft; Thyroid): 0.29 % ID/g | Biodistribution, Urine (Avg) (LNCaP xenograft; Urine): 311.63 % ID/g

O=C(O)CC[C@H](NC(=O)N[C@@H](C[C@H]1C[C@@H]1CNC(=O)[C@H](Cc1c2ccccc2cc2ccccc12)NC(=O)[C@H]1CC[C@H](CNC(=O)CN2CCN(CC(=O)O)CCN(CC(=O)O)CCN(CC(=O)O)CC2)CC1)C(=O)O)C(=O)O [PD-6-49]
Ki (PSMA): 11.9 nM
